Assay results as given in patent publication US20120116095A1, “GLYCINE TRANSPORTER INHIBITORS” (TAISHO PHARMACEUTICAL C0., LTD., priority 2009, published 2012).
Where two headings read alike, the source gives them in different places.

Columns and labels:
[1] = target: T1, human type 1 glycine transporter (GlyT1) (Homo sapiens, UniProt P48067); assay: Glycine uptake inhibition experiment ([3H]glycine uptake in T98G cells); format: cell-based; details: [3H]glycine 250 nM, 15 min, room temperature
T1 construct: Glioma T98G cells endogenously expressing human type 1 glycine transporter (GlyT1) were used; endogenous in cells; host or cells: T98G human glioma cells
T1 sequence (P48067 1-706): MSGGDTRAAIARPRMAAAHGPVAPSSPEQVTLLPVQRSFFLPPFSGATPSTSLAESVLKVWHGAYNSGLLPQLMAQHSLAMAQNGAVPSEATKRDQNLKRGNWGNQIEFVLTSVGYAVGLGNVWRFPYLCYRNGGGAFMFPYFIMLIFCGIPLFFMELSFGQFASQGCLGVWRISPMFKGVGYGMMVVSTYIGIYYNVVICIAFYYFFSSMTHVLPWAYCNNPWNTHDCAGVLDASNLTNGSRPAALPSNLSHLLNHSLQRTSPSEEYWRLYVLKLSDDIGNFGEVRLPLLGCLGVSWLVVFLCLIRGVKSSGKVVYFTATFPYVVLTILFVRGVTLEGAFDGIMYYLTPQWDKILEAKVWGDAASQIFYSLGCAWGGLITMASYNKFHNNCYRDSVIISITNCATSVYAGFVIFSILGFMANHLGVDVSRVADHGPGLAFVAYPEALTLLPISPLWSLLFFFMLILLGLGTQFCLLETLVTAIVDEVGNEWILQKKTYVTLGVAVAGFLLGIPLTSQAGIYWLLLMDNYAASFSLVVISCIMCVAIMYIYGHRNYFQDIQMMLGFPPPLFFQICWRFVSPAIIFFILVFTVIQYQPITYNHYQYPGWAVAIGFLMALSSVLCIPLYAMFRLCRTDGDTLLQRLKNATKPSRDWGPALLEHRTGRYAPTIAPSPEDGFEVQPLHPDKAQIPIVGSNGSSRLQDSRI
Method: A glycine uptake experiment was conducted as described in Neuron, 8, 927-935, 1992. Glioma T98G cells endogenously expressing human type 1 glycine transporter (GlyT1) were used. T98G cells were seeded in a 96-well plate at 2.0×10^4 cells/well and cultured overnight in a CO2 incubator. A test compound was dissolved in a 100% DMSO solution and then dissolved in 10 mM HEPES buffer (pH 7.4) containing 150 mM sodium chloride, 1 mM calcium chloride, 5 mM potassium chloride, 1 mM magnesium chloride, 10 mM glucose and 0.2% bovine serum albumin. After removing the cell culture medium, the cells were pre-treated with the test compound for 10 minutes. Subsequently, the test compound and [^3H]glycine (final concentration: 250 nM) were added to the cells and incubated at room temperature for 15 minutes. After the incubation, the extracellular solution was aspirated with a manifold to remove the excess labeled glycine existing outside the cells, and the cells were then lysed with 0.5 M aqueous sodium hydroxide. The amount of glycine uptake was determined by measuring radioactivity in the cell lysate using a liquid scintillation counter. Glycine uptake in the presence of 10 μM ALX5407 was defined as non-specific uptake, and the value calculated by subtracting this non-specific uptake from the total uptake in the absence of 10 μM ALX5407 was defined as specific uptake. Moreover, an inhibition curve was obtained for each test compound at concentrations of […] to calculate the glycine uptake inhibitory activity (IC50 value) of each test substance.
It should be noted that ALX5407 is a HCl salt of N-[(3R)-3-([1,1′-biphenyl]-4-yloxy)-3-(4-fluorophenyl)propyl]-N-methylglycine.

P-glycoprotein (P-gp) = target: T2, P-glycoprotein (P-gp) (Homo sapiens, UniProt P08183); assay: Test for substrate recognition by P-gp (LLC-GA5-COL300 cells); format: in vitro ADME; details: 10 μM, Human MDR1-expressing LLC-GA5-COL300 cells, Apical to Basolateral and Basolateral to Apical
T2 construct: expressed in transfected cells; host or cells: LLC-GA5-COL300 (pig kidney LLC-PK1 cells expressing human MDR1)
T2 sequence (P08183 whole entry): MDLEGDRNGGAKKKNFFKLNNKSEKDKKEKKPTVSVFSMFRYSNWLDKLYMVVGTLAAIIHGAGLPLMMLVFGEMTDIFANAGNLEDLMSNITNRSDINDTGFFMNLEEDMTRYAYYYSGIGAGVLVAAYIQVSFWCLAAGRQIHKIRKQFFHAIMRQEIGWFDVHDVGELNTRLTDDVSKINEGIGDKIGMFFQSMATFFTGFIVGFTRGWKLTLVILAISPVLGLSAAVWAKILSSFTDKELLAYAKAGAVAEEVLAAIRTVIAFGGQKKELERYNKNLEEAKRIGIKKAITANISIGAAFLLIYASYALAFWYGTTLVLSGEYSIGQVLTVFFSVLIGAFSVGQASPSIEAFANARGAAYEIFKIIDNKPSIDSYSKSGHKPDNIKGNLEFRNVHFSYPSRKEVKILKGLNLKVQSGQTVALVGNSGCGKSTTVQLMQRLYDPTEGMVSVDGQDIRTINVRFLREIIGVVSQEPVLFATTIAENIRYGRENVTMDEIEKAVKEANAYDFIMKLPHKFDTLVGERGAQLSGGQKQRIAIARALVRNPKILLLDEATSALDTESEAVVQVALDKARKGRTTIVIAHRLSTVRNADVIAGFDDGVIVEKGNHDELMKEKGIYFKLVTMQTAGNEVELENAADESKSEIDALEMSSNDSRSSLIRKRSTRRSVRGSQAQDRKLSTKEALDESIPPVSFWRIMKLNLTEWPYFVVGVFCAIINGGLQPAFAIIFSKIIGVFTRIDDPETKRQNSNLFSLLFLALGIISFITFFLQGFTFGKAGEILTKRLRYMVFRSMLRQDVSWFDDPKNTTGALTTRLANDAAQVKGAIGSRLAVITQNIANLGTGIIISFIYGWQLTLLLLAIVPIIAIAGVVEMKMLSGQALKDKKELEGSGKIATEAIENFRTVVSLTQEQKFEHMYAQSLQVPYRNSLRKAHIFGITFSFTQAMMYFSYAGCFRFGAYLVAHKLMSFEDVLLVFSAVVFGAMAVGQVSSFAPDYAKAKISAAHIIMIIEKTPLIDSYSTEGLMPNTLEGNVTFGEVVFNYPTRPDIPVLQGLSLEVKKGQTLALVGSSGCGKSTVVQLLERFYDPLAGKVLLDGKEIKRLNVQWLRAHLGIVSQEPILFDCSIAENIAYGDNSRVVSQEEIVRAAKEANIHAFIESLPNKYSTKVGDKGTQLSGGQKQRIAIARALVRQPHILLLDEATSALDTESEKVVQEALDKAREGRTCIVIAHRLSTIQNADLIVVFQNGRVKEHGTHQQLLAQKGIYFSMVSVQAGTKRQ
Description: In the case of drugs that act on the central nervous system, it is generally important for such drugs to be transferred from blood into brain for development of their efficacy. In the blood-brain barrier, there is found P-glycoprotein (P-gp), which is a typical member of the efflux transporters that control drug penetration; and P-gp inhibits the penetration of its substrate drugs into the brain. Thus, in developing a drug, recognition performance as a P-gp substrate can be used as an indicator of brain penetration.
A test for substrate recognition by P-gp was conducted as described in J. Pharmacol. Exp. Ther. (1992) Vol. 263, No. 2, 840-845 and J. Biol. Chem. (1992) Vol. 267, No. 34, 24248-24252. Specifically, LLC-GA5-COL300 cells (i.e., a Human MDR1-expressing system originating from a pig kidney-derived cultured renal epithelial cell line, LLC-PK1) were used after being cultured for 4 days on trans wells, and the medium in each well was replaced by Hank's balanced salt solution (HBSS) immediately before use in the test. After a test compound solution (i.e., a DMSO solution of a test compound, which was further diluted with HBSS and adjusted to a final concentration of 10 μM) was added to the Donor side of the LLC-GA5-COL300 cells, aliquots of HBSS were sampled over time from the Acceptor side to determine the test compound concentration in each collected sample by LC-MS/MS.
The membrane permeability coefficient (×10^−6 cm/sec) was calculated by the accumulated amount of the compound into the Acceptor side for both directions, Apical to Basolateral and Basolateral to Apical. and the ratio of these coefficients (Efflux Ratio) was then used to evaluate substrate recognition by P-gp.

[2] = read-out: glycine uptake inhibitory activity (IC50 value)
[3] = read-out: glycine uptake inhibitory activity (IC50 value), bounds

Compound | IC50 [1, 2] | recognition as a P-gp substrate (Efflux Ratio criteria) (P-glycoprotein (P-gp)) | IC50 [1, 3]
CC(C)N(Cc1ccc(F)c(-c2ccc(F)c(F)c2)c1)C(=O)c1cn(C)cn1 [Compound 17] | 18.8 nM | not to be recognized as a P-gp substrate | –
CC(C)N(Cc1cc(-c2ccc(F)cc2)cc(C(F)(F)F)c1)C(=O)c1cn(C)cn1 [Compound 49] | – | – | > 1000 nM
COc1ccc(-c2cc(CN(C(=O)c3cn(C)cn3)C(C)C)ccc2F)cc1 [Compound 25] | 25.4 nM | – | –
CC(C)N(Cc1ccc(F)c(-c2ccc(F)cc2)c1)C(=O)c1cn(C)cn1 [Compound 18] | 8.89 nM | not to be recognized as a P-gp substrate | –
CCn1cnc(C(=O)N(Cc2ccc(F)c(-c3cc(F)c(F)c(F)c3)c2)C(C)C)c1 [Compound 42] | 48.3 nM | – | –
COC(=O)c1cccc(-c2cc(CN(C(=O)c3ncn(C)n3)C3CCCCC3)ccc2F)c1 [Compound 2] | 12.6 nM | – | –
COc1ccc(CN(C(=O)c2cn(C)cn2)C(C)C)cc1-c1ccc(F)cc1 [Compound 43] | – | – | > 1000 nM
CC(C)N(Cc1ccc(F)c(-c2ccccc2)c1)C(=O)c1cn(C)cn1 [Compound 22] | 11.6 nM | not to be recognized as a P-gp substrate | –
CC(CO)N(Cc1ccc(F)c(-c2ccc(OC(F)(F)F)cc2)c1)C(=O)c1cn(C)cn1 (stereo not drawn) [Compound 52] | 30.7 nM | – | –
CC(C)N(Cc1ccc(F)c(-c2ccccc2F)c1)C(=O)c1cn(C)cn1 [Compound 23] | 21.4 nM | – | –
CC(C)CN(Cc1ccc(F)c(-c2ccc(F)c(F)c2)c1)C(=O)c1cn(C)cn1 [Compound 32] | – | – | ≥ 100 nM
Cc1ccc(CN(C(=O)c2cn(C)cn2)C(C)C)cc1-c1ccc(OC(F)(F)F)cc1 [Compound 46] | – | – | > 1000 nM
Cn1cnc(C(=O)N(Cc2ccc(F)c(-c3ccc(F)c(F)c3)c2)C2CCCC2)c1 [Compound 31] | 21 nM | – | –
CC(C)N(Cc1ccc(F)c(-c2ccc(C(F)(F)F)cc2)c1)C(=O)c1cn(C)cn1 [Compound 30] | – | – | ≥ 100 nM
CC(C)N(Cc1ccc(F)c(-c2ccc(OC(F)(F)F)cc2)c1)C(=O)c1ncn(C)n1 [Compound 4] | – | – | ≥ 100 nM
CCOc1cccc(-c2cc(CN(C(=O)c3cn(C)cn3)C(C)C)ccc2F)c1 [Compound 21] | 13.6 nM | – | –
CC(C)N(Cc1ccc(F)c(-c2cccc(OC(F)(F)F)c2)c1)C(=O)c1ncn(C)n1 [Compound 3] | – | – | ≥ 100 nM
CC(C)N(Cc1ccc(F)c(-c2ccc(C#N)cc2F)c1)C(=O)c1cn(C)cn1 [Compound 37] | – | – | ≥ 100 nM
Cn1cnc(C(=O)N(Cc2ccc(F)c(-c3cccc(CO)c3)c2)C2CCCCC2)c1 [Compound 8] | 11 nM | – | –
CC(C)N(Cc1ccc(F)c(-c2ccc(OC(F)F)cc2)c1)C(=O)c1cn(C)cn1 [Compound 35] | 48.9 nM | – | –
CC(C)N(Cc1cc(OC(F)(F)F)cc(-c2ccc(F)cc2)c1)C(=O)c1cn(C)cn1 [Compound 50] | – | – | > 1000 nM
COc1ccc(-c2cc(CN(C(=O)c3cn(C)cn3)C(C)C)ccc2F)cc1F [Compound 19] | 18.6 nM | – | –

Compound | IC50 [1, 2] | recognition as a P-gp substrate (Efflux Ratio criteria) (P-glycoprotein (P-gp)) | IC50 [1, 3]
Cn1cnc(C(=O)N(Cc2ccc(F)c(-c3cccc(CO)c3)c2)C2CCCC2)c1 [Compound 14] | 2.78 nM | – | –
Cc1ccc(CN(C(=O)c2cn(C)cn2)C(C)C)cc1-c1ccc(F)cc1 [Compound 47] | – | – | > 1000 nM
CC(C)N(Cc1ccc(F)c(-c2cc(F)c(F)c(F)c2)c1)C(=O)c1c[nH]cn1 [Compound 41] | – | – | > 1000 nM
CC(C)N(Cc1ccc(F)c(-c2cc(F)c(F)c(F)c2)c1)C(=O)c1cn(C)cn1 [Compound 36] | 38.2 nM | not to be recognized as a P-gp substrate | –
CC(C)N(Cc1ccc(Cl)c(-c2ccc(F)cc2)c1)C(=O)c1cn(C)cn1 [Compound 51] | – | – | ≥ 100 nM
CC(C)N(Cc1ccc(F)c(-c2cccc(OC(F)(F)F)c2)c1)C(=O)c1cn(C)cn1 [Compound 15] | 21.4 nM | – | –
CC(C)N(Cc1ccc(F)c(-c2cccc(F)c2)c1)C(=O)c1cn(C)cn1 [Compound 20] | 7.19 nM | not to be recognized as a P-gp substrate | –
Cn1cnc(C(=O)N(Cc2ccc(F)c(-c3cccc(CO)c3)c2)C2CCC2)c1 [Compound 13, N-Cyclobutyl-N-{[6-fluoro-3′-(hydroxymethyl)biphenyl-3-yl]methyl}-1-methyl-1H-imidazole-4-carboxamide] | 4.33 nM | – | –
COCCN(Cc1ccc(F)c(-c2ccc(OC(F)(F)F)cc2)c1)C(=O)c1cn(C)cn1 [Compound 16] | 41.5 nM | – | –
Cn1cnc(C(=O)N(Cc2ccc(F)c(-c3cccc(CO)c3)c2)C2CCCCC2)n1 [Compound 6] | 14.6 nM | – | –
CCC(CC)N(Cc1ccc(F)c(-c2cccc(CO)c2)c1)C(=O)c1cn(C)cn1 [Compound 11] | 35.1 nM | – | –
CC(C)N(Cc1ccc(F)c(-c2cccc(CO)c2)c1)C(=O)c1cn(C)cn1 [Compound 7] | 25.9 nM | – | –
COc1cccc(-c2cc(CN(C(=O)c3cn(C)cn3)C(C)C)ccc2F)c1 [Compound 24] | 14.2 nM | not to be recognized as a P-gp substrate | –
CC(C)N(Cc1cc(-c2ccc(OC(F)(F)F)cc2)cc(C(F)(F)F)c1)C(=O)c1cn(C)cn1 [Compound 48] | – | – | > 1000 nM
CC(C)N(Cc1ccc(F)c(-c2cc(F)cc(F)c2)c1)C(=O)c1cn(C)cn1 [Compound 28] | 22.6 nM | – | –
CC(C)N(Cc1ccc(F)c(-c2cccc(OC(F)F)c2)c1)C(=O)c1cn(C)cn1 [Compound 34] | 49.4 nM | – | –
CC(C)N(Cc1ccc(F)c(-c2cc(F)cc(C#N)c2)c1)C(=O)c1cn(C)cn1 [Compound 39] | 48.5 nM | – | –
CCn1cnc(C(=O)N(Cc2ccc(F)c(-c3ccc(OC(F)(F)F)cc3)c2)C(C)C)c1 [Compound 40, 1-Ethyl-N-{[6-fluoro-4′-(trifluoromethoxy)biphenyl-3-yl]methyl}-N-(propan-2-yl)-1H-imidazole-4-carboxamide] | 35.9 nM | – | –
CC(C)N(Cc1ccc(F)c(-c2cccc(CO)c2)c1)C(=O)c1ncn(C)n1 [Compound 5] | – | – | ≥ 100 nM
C=C(C)N(Cc1ccc(F)c(-c2ccc(OC(F)(F)F)cc2)c1)C(=O)c1cn(C)cn1 [Compound 53, N-{[6-Fluoro-4′-(trifluoromethoxy)biphenyl-3-yl]methyl}-1-methyl-N-(prop-1-en-2-yl)-1H-imidazole-4-carboxamide] | – | – | ≥ 100 nM
CC(C)N(Cc1ccc(F)c(-c2ccc(OC(F)(F)F)cc2)c1)C(=O)c1c[nH]cn1 [Compound 54] | – | not to be recognized as a P-gp substrate | > 1000 nM
CC(C)N(Cc1ccc(F)c(-c2ccc(Cl)cc2)c1)C(=O)c1cn(C)cn1 [Compound 26] | 40 nM | – | –
